US7064207B2, “Androgen receptor antagonists” (Warner Lambert Company LLC, priority 2003, dated 2006)

target: T1, androgen receptor (Homo sapiens, UniProt P10275); assay: AR Antagonist Cell Assay (MMTV-luciferase reporter, inhibition of DHT induction); assay type: cell-based; settings: MDA-MB453-MMTV clone 54-19 cells, 100 pM DHT, 17 hr, luciferase; read-out: Cell IC50
T1 sequence (P10275 1-920 Q868H): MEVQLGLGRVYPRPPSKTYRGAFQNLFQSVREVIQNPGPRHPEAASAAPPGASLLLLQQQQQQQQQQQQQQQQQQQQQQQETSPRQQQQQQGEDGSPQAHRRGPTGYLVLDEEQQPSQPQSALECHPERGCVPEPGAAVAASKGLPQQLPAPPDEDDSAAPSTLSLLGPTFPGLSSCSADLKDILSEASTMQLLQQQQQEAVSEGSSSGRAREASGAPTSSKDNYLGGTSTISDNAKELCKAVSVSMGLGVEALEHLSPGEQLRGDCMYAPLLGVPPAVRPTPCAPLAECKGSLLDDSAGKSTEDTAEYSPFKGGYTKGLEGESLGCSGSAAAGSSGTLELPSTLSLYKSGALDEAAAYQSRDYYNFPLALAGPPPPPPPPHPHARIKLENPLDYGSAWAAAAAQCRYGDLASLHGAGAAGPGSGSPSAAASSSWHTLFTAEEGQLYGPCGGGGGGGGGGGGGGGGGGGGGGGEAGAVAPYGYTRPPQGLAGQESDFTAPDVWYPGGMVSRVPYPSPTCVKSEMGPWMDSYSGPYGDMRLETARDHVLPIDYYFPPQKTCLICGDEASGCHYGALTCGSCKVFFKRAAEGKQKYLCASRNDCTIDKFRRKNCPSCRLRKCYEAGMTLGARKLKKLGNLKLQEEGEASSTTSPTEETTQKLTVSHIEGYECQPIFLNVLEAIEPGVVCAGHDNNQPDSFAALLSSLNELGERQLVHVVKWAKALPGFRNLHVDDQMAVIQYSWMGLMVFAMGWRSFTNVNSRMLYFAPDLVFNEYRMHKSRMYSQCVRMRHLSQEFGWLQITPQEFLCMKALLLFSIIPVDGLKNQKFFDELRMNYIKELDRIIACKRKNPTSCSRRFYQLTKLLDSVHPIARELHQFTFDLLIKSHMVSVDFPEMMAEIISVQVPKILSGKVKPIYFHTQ
Description: The compounds ability to antagonize the effects of androgen on the androgen receptor were determined in the protocol described immediately below.
Experimental Procedure for AR Antagonist Cell Assay
Cell line: MDA-MB453-MMTV clone 54–19. This cell line is a stable transfected cell line with MDA-MB453 cell background (human breast tumor cell expressing high level of androgen receptor). A MMTV minimal promoter containing ARE was first cloned in front of a firefly luciferase reporter gene. Then the cascade was cloned into transfection vector pUV120puro. Electroporation method was used for transfecting MDA-MB-453 cell. Puromycin resistant stable cell line was selected. Cell Culture Media and Reagents:
Culture medium: DMEM (high glucose, Gibco cat #: 11960-044), 10% FBS, and 1% L-glutamine
Plating medium: DMEM (phenol red free), 10% charcoal treated HyClone serum, 1% L-glutamine
Assay medium: DMEM (phenol red free), 1% charcoal treated HyClone serum, 1% L-glutamine, and 1% penicillin/streptomycin
3× luciferase buffer: 2% beta-mercaptoethanol, 0.6% ATP, 0.0135% luciferine in cell lysis buffer
• 1. Cells are maintained in culture medium, splitting cells when they reach 80–90% confluence • 2. To test compounds, 10,000 cells/well are plated to opaque 96 cell culture plate in 100 ul/well plating medium, culture for overnight at 37° C. in cell culture incubator • 3. Carefully remove plating medium, then add 80 ul/well of pre-warmed assay medium, add 10 ul/well testing compound (final concentration at 10 uM or 1 uM), incubate at 37° C. for 30 minutes • 4. Add 10 ul/well freshly prepared DHT (final concentration at 100 pM) to each well, incubate at 37° C. for 17 hr (overnight) • 5. Add 50 ul/well 3× luciferase buffer, incubate at room temperature for 5 minutes, then count on Luminometer The fold induction over background by 100 pM DHT in the absence of testing compounds is standardized as 100% and experimental result is expressed as percentage of inhibition by testing compounds.

SMILES | IC50
Cn1c(=O)cc(C(F)(F)F)c2cc(S(=O)(=O)N3CCN(CCOCCO)CC3)ccc21 [Example 6, 6-{4-[2-(2-Hydroxyethoxy)-ethyl]piperazine-1-sulfonyl}-1-methyl-4-trifluoromethyl-1H-quinolin-2-one] | > 10 µM
Cn1c(=O)cc(C(F)(F)F)c2cc(S(=O)(=O)N3CCSC3)ccc21 [Example 7, 1-Methyl-6-(thiazolidine-3-sulfonyl)-4-trifluoromethyl-1H-quinolin-2-one] | > 10 µM
Cn1c(=O)cc(C(F)(F)F)c2cc(S(=O)(=O)N3CCCC4CCCCC43)ccc21 (centres unmarked) [Example 8, 1-Methyl-6-(octahydro-quinoline-1-sulfonyl)-4-trifluoromethyl-1H-quinolin-2-one] | > 10 µM
Cn1c(=O)cc(C(F)(F)F)c2cc(S(=O)(=O)N3CCCCCC3)ccc21 [Example 9, 6-(Azepane-1-sulfonyl)-1-methyl-4-trifluoromethyl-1H-quinolin-2-one] | > 10 µM
CC1CN(S(=O)(=O)c2ccc3c(c2)c(C(F)(F)F)cc(=O)n3C)CC(C)O1 (centres unmarked) [Example 10, 6-(2,6Dimethylmorpholine-4-sulfonly)-1-methyl-4-trifluoromethyl-1H-quinolin-2-one] | > 10 µM
Cn1c(=O)cc(C(F)(F)F)c2cc(S(=O)(=O)N3CCCc4ccccc43)ccc21 [Example 11, 6-(3,4-Dihydro-2H-quinoline-1-sulfonyl)-1-methyl-4-trifluoromethyl-1H-quinolin-2-one] | > 10 µM
O=c1cc(C(F)(F)F)c2cc(S(=O)(=O)N3CCC(N4CCCC4)CC3)ccc2[nH]1 [Example 13, 6-(4-Pyrrolidin-1-ylpiperidine-1-sulfonyl)-4-trifluoromethyl-1H-quinolin-2-one] | > 10 µM
O=c1cc(C(F)(F)F)c2cc(S(=O)(=O)N3CCN(CCOCCO)CC3)ccc2[nH]1 [Example 20, 6-{4-[2-(2-Hydroxyethoxy)-ethyl]piperazine-1-sulfonyl}-4-trifluoromethyl-1H-quinolin-2-one] | > 10 µM
O=C(CN1CCN(S(=O)(=O)c2ccc3[nH]c(=O)cc(C(F)(F)F)c3c2)CC1)N1CCCC1 [Example 23, 6-[4-(2-Oxo-2-pyrrolidin-1-ylethyl)piperazine-1-sulfonyl]-4-trifluoromethyl-1H-quinolin-2-one] | > 10 µM
O=c1cc(C(F)(F)F)c2cc(S(=O)(=O)N3CCN(c4ccncc4)CC3)ccc2[nH]1 [Example 27, 6-(4-Pyridin-4-ylpiperazine-1-sulfonyl)-4-trifluoromethyl-1H-quinolin-2-one] | > 10 µM
O=c1cc(C(F)(F)F)c2cc(S(=O)(=O)N3CCN(c4ccccc4)CC3)ccc2[nH]1 [Example 28, 6-(4-Phenylpiperazine-1-sulfonyl)-4-trifluoromethyl-1H-quinolin-2-one] | > 10 µM
O=c1cc(C(F)(F)F)c2cc(S(=O)(=O)N3CCCCC3CCO)ccc2[nH]1 (centres unmarked) [Example 29, 6-[2-(2-Hydroxyethyl)-piperidine-1-sulfonyl]-4-trifluoromethyl-1H-quinolin-2-one] | > 10 µM
O=c1cc(C(F)(F)F)c2cc(S(=O)(=O)N3CCCC3CO)ccc2[nH]1 (centres unmarked) [Example 30, 6-(2-Hydroxymethyl-pyrrolidine-1-sulfonyl)-4-trifluoromethyl-1H-quinolin-2-one] | 2.17 µM

The remaining lines, values ahead:

IC50 | SMILES
> 10 µM | CCOC(=O)C1CCN(S(=O)(=O)c2ccc3c(c2)c(C(F)(F)F)cc(=O)n3C)CC1 [Example 3, 1-(1-Methyl-2-oxo-4-trifluoromethyl-1,2-dihydroquinoline-6-sulfonyl)piperidine-4-carboxylic acid ethyl ester]
> 10 µM | Cn1c(=O)cc(C(F)(F)F)c2cc(S(=O)(=O)N3Cc4ccccc4C3)ccc21 [Example 4, 6-(1,3-Dihydroisoindole-2-sulfonyl)-1-methyl-4-trifluoromethyl-1H-quinolin-2-one]
> 10 µM | CCN1CCN(S(=O)(=O)c2ccc3c(c2)c(C(F)(F)F)cc(=O)n3C)CC1 [Example 5, 6-(4-Ethylpiperazine-1-sulfonyl)-1-methyl-4-trifluoromethyl-1H-quinolin-2-one]
1.23 µM | O=c1cc(C(F)(F)F)c2cc(S(=O)(=O)N3CCCCCCC3)ccc2[nH]1 [Example 12, 6-(Azocane-1-sulfonyl)-4-trifluoromethyl-1H-quinolin-one]
1.26 µM | CCOC(=O)C1CCN(S(=O)(=O)c2ccc3[nH]c(=O)cc(C(F)(F)F)c3c2)CC1 [Example 15, 1-(2-Oxo-4-trifluoromethyl-1,2-dihydroquinoline-6-sulfonyl)piperidine-4-carboxylic acid ethylester]
0.64 µM | O=c1cc(C(F)(F)F)c2cc(S(=O)(=O)N3CCC(O)(c4cccs4)CC3)ccc2[nH]1 [Example 16, 6-(4-Hydroxy-4-thiophen-2-ylpiperidine-1-sulfonyl)-4-trifluoromethyl-1H-quinolin-2-one]
2.96 µM | O=c1cc(C(F)(F)F)c2cc(S(=O)(=O)N3CCN(Cc4ccco4)CC3)ccc2[nH]1 [Example 17, 6-(4-Furan-2-ylmethylpiperazine-1-sulfonyl)-4-trifluoromethyl-1H-quinolin-2-one]
0.49 µM | O=c1cc(C(F)(F)F)c2cc(S(=O)(=O)N3Cc4ccccc4C3)ccc2[nH]1 [Example 18, 6-(1,3-Dihydroisoindole-2-sulfonyl)-4-trifluoromethyl-1H-quinolin-2-one]
2.24 µM | COC(=O)[C@@H]1CCCN1S(=O)(=O)c1ccc2[nH]c(=O)cc(C(F)(F)F)c2c1 [Example 19, 1-(2-Oxo-4-trifluoromethyl-1,2-dihydroquinoline-6-sulfonyl)pyrrolidine-2-carboxylic acid methylester]
0.48 µM | COc1cc2c(cc1OC)CN(S(=O)(=O)c1ccc3[nH]c(=O)cc(C(F)(F)F)c3c1)CC2 [Example 21, 6-(6,7-Dimethoxy-3,4-dihydro-1H-isoquinoline-2-sulfonyl)-4-trifluoromethyl-1H-quinolin-2-one]
1.9 µM | O=c1cc(C(F)(F)F)c2cc(S(=O)(=O)N3CCC4(CC3)OCCO4)ccc2[nH]1 [Example 22, 6-(1,4-Dioxa-8-azaspiro[4.5]decane-8-sulfonyl)-4-trifluoromethyl-1H-quinolin-2-one]
0.96 µM | CC1CCN(S(=O)(=O)c2ccc3[nH]c(=O)cc(C(F)(F)F)c3c2)CC1 [Example 24, 6-(4-Methylpiperidine-1-sulfonyl)-4-trifluoromethyl-1H-quinolin-2-one]
3.54 µM | O=c1cc(C(F)(F)F)c2cc(S(=O)(=O)N3CCCC(CO)C3)ccc2[nH]1 (centres unmarked) [Example 25, 6-(3-Hydroxymethylpiperidine-1-sulfonyl)-4-trifluoromethyl-1H-quinolin-2-one]
0.16 µM | O=c1cc(C(F)(F)F)c2cc(S(=O)(=O)N3CCSC3)ccc2[nH]1 [Example 26, 6-(Thiazolidine-3-sulfonyl)-4-trifluoromethyl-1H-quinolin-2-one]
0.44 µM | O=c1cc(C(F)(F)F)c2cc(S(=O)(=O)N3CCCC4CCCCC43)ccc2[nH]1 (centres unmarked) [Example 31, 6-(Octahydroquinoline-1-sulfonyl)-4-trifluoromethyl-1H-quinolin-2-one]

same assay, conditions: per procedure of Example 57; read-out: IC50

IC50 | SMILES
0.181 µM | O=c1cc(C(F)(F)F)c2cc(S(=O)(=O)N3CCCCC3)ccc2[nH]1 [Example 2, 6-(Piperidine-1-sulfonyl)-4-trifluoromethyl-1H-quinolin-2-one]
